Source: PubChem BioAssay AID1259411 (Chemical Carcinogenesis Research Information System (CCRIS), 2018)
The source made the active and inactive calls. How the calls were made is not given here.

Tested on: rodent carcinogenicity bioassays, tumor incidence
Experiment: CCRIS carcinogenicity studies
How it was run: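 NCI-built, expert-reviewed records of carcinogenicity and related test outcomes (mutagenicity, tumor promotion/inhibition) compiled from published and report sources, historical span 1985-2011, not updated.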

SMILES: C[C@]12CC[C@@H]3c4ccc(O)c(O)c4CC[C@H]3[C@@H]1CC[C@@H]2O
- carcinogen call (Species: MOUSE, Strain/Sex: CD-1/FEMALE, Route: SUBCUTANEOUS, Dose: 0, 2 UG/D IN CORN OIL ON DAYS 1-5 OF LIFE (STUDY DURATION: 12-18 WK), Tumor Site: Type of Lesion: UTERUS: ADENOCARCINOMA): active; positive
- carcinogen call (Species: Mouse, Strain/Sex: CD-1/Female (45/experimental group; 40/control group), Route: Subcutaneous, Dose: 0, 2 ug in peanut oil, dosed on days 1-5 of life and retained for 1.5 (4 animals), 3 (4 animals), 6 (4 animals), 9 (4 an, Dose: 0, 2 ug in peanut oil, dosed on days 1-5 of life and retained for 1.5 (4 animals), 3 (4 animals), 6 (4 animals), 9 (4 an, Tumor Site: Type of Lesion: Uterus and ovaries examined): inactive; negative; nonneoplastic changes observed

SMILES: Cc1cc2c3c(cccc3c1)-c1ccccc1-2
- carcinogen call (Species: MOUSE, Strain/Sex: CD-1/FEMALE, Route: INTRAPERITONEAL, Dose: 0, 3.46, 17.3 UMOL (TOTAL DOSE) IN DMSO ADMINISTERED ON DAYS 1,8, AND 15 OF LIFE (STUDY DURATION: 52 WK), Dose: 0, 3.46, 17.3 UMOL (TOTAL DOSE) IN DMSO ADMINISTERED ON DAYS 1,8, AND 15 OF LIFE (STUDY DURATION: 52 WK), Tumor Site: Type of Lesion: LUNG: TUMORS, LIVER: TUMORS): active; positive
- carcinogen call (Species: MOUSE, Strain/Sex: CD-1/MALE, Route: INTRAPERITONEAL, Dose: 0, 3.46, 17.3 UMOL (TOTAL DOSE) IN DMSO ADMINISTERED ON DAYS 1,8, AND 15 OF LIFE (STUDY DURATION: 52 WK), Dose: 0, 3.46, 17.3 UMOL (TOTAL DOSE) IN DMSO ADMINISTERED ON DAYS 1,8, AND 15 OF LIFE (STUDY DURATION: 52 WK), Tumor Site: Type of Lesion: LUNG: TUMORS, LIVER: TUMORS): active; positive

SMILES: CCCCC(CC)COP(=O)(OCC(CC)CCCC)OCC(CC)CCCC (stereo not drawn)
- carcinogen call (Species: MOUSE, Strain/Sex: B6C3F1/FEMALE, Route: GAVAGE, Dose: 0, 500, 1000 MG/KG IN CORN OIL 1/D 5 D/WK FOR 102-104 WK (STUDY DURATION: 102-104 WK), Dose: 0, 500, 1000 MG/KG IN CORN OIL 1/D 5 D/WK FOR 102-104 WK (STUDY DURATION: 102-104 WK), Tumor Site: Type of Lesion: LIVER: CARCINOMA, CARCINOMA OR ADENOMA): active; positive
- carcinogen call (Species: MOUSE, Strain/Sex: B6C3F1/FEMALE, Route: GAVAGE, Dose: 0, 500, 1000 MG/KG IN CORN OIL 5/WK FOR 103 WK (STUDY DURATION: 104 WK), Dose: 0, 500, 1000 MG/KG IN CORN OIL 5/WK FOR 103 WK (STUDY DURATION: 104 WK), Tumor Site: Type of Lesion: LIVER: ADENOMA, CARCINOMA): active; positive
- carcinogen call (Species: MOUSE, Strain/Sex: B6C3F1/MALE, Route: GAVAGE, Dose: 0, 500, 1000 MG/KG IN CORN OIL 1/D 5 D/WK FOR 102-104 WK (STUDY DURATION: 102-104 WK), Dose: 0, 500, 1000 MG/KG IN CORN OIL 1/D 5 D/WK FOR 102-104 WK (STUDY DURATION: 102-104 WK)): inactive; negative
- carcinogen call (Species: MOUSE, Strain/Sex: B6C3F1/MALE, Route: GAVAGE, Dose: 0, 500, 1000 MG/KG IN CORN OIL 5/WK FOR 103 WK (STUDY DURATION: 104 WK), Dose: 0, 500, 1000 MG/KG IN CORN OIL 5/WK FOR 103 WK (STUDY DURATION: 104 WK)): inactive; negative
- carcinogen call (Species: RAT, Strain/Sex: F344/FEMALE, Route: GAVAGE, Dose: 0, 1000, 2000 MG/KG IN CORN OIL 5/WK FOR 103 WK (STUDY DURATION: 103 WK), Dose: 0, 1000, 2000 MG/KG IN CORN OIL 5/WK FOR 103 WK (STUDY DURATION: 103 WK)): inactive; negative
- carcinogen call (Species: RAT, Strain/Sex: F344/FEMALE, Route: GAVAGE, Dose: 0, 1000, 2000 MG/KG IN CORN OIL 5 D/WK FOR 102-104 WK (STUDY DURATION: 102-104 WK), Dose: 0, 1000, 2000 MG/KG IN CORN OIL 5 D/WK FOR 102-104 WK (STUDY DURATION: 102-104 WK)): inactive; negative
- carcinogen call (Species: RAT, Strain/Sex: F344/MALE, Route: GAVAGE, Dose: 0, 2000, 4000 MG/KG IN CORN OIL 5/WK FOR 103 WK (STUDY DURATION: 104 WK), Dose: 0, 2000, 4000 MG/KG IN CORN OIL 5/WK FOR 103 WK (STUDY DURATION: 104 WK), Tumor Site: Type of Lesion: ADRENAL GLAND: PHEOCHROMOCYTOMA): equivocal
- carcinogen call (Species: RAT, Strain/Sex: F344/MALE, Route: GAVAGE, Dose: 0, 2000, 4000 MG/KG IN CORN OIL 5 D/WK FOR 102-104 WK (STUDY DURATION: 102-104 WK), Dose: 0, 2000, 4000 MG/KG IN CORN OIL 5 D/WK FOR 102-104 WK (STUDY DURATION: 102-104 WK)): inactive; negative

SMILES: OCCCl
- carcinogen call (Species: MOUSE, Strain/Sex: CD-1/FEMALE, Route: DERMAL, Dose: 0, 7.5, 15 MG/ANIMAL IN 70% ETHANOL IN WATER 5 D/WK FOR 104 WK, Dose: 0, 7.5, 15 MG/ANIMAL IN 70% ETHANOL IN WATER 5 D/WK FOR 104 WK): inactive; negative
- carcinogen call (Species: MOUSE, Strain/Sex: CD-1/MALE, Route: DERMAL, Dose: 0, 7.5, 15 MG/ANIMAL IN 70% ETHANOL IN WATER 5 D/WK FOR 104 WK, Dose: 0, 7.5, 15 MG/ANIMAL IN 70% ETHANOL IN WATER 5 D/WK FOR 104 WK): inactive; negative
- carcinogen call (Species: RAT, Strain/Sex: F344/FEMALE, Route: DERMAL, Dose: 0, 50, 100 MG/KG IN 70% ETHANOL IN WATER 5 D/WK FOR 103 WK, Dose: 0, 50, 100 MG/KG IN 70% ETHANOL IN WATER 5 D/WK FOR 103 WK): inactive; negative
- carcinogen call (Species: RAT, Strain/Sex: F344/MALE, Route: DERMAL, Dose: 0, 50, 100 MG/KG IN 70% ETHANOL IN WATER 5 D/WK FOR 103 WK, Dose: 0, 50, 100 MG/KG IN 70% ETHANOL IN WATER 5 D/WK FOR 103 WK): inactive; negative

SMILES: O=C(O)[C@H]1O[C@@H](N(O)c2ccc3c(c2)Cc2ccccc2-3)[C@H](O)[C@@H](O)[C@@H]1O
- carcinogen call (Species: RAT, Strain/Sex: F344/MALE, Route: INJECTION, Dose: 0, 1 UMOL IN 0.5 ML OF SOLUTION CONTAINING 0.4 ML PHOSPHATE BUFFERED SALINE/ GENTAMYCIN (PH 7) AND 0.1 ML DMSO INJECTED, Tumor Site: Type of Lesion: BLADDER: CARCINOMA): active; positive

SMILES: O=NN1CC=CC[C@H]1c1cccnc1
- carcinogen call (Species: RAT, Strain/Sex: F344/FEMALE, Route: SUBCUTANEOUS, Dose: 0, 1, 3, 9 MMOL/KG BW (TOTAL DOSE) WITH SUBDOSES GIVEN 3/WK FOR 20 WK WITH A 2 WK INTERRUPTION AFTER 7 WK (STUDY DURATIO, Dose: 0, 1, 3, 9 MMOL/KG BW (TOTAL DOSE) WITH SUBDOSES GIVEN 3/WK FOR 20 WK WITH A 2 WK INTERRUPTION AFTER 7 WK (STUDY DURATIO): inactive; negative
- carcinogen call (Species: RAT, Strain/Sex: F344/MALE, Route: SUBCUTANEOUS, Dose: 0, 1, 3, 9 MMOL/KG BW (TOTAL DOSE) WITH SUBDOSES GIVEN 3/WK FOR 20 WK WITH A 2 WK INTERRUPTION AFTER 7 WK (STUDY DURATIO, Dose: 0, 1, 3, 9 MMOL/KG BW (TOTAL DOSE) WITH SUBDOSES GIVEN 3/WK FOR 20 WK WITH A 2 WK INTERRUPTION AFTER 7 WK (STUDY DURATIO): inactive; negative

SMILES: Oc1cccc2cccnc12
- carcinogen call (Species: MOUSE, Strain/Sex: B6C3F1/FEMALE, Route: ORAL, Dose: 0, 1500, 3000 PPM IN DIET FOR 103 WK, Dose: 0, 1500, 3000 PPM IN DIET FOR 103 WK): inactive; negative
- carcinogen call (Species: MOUSE, Strain/Sex: B6C3F1/MALE, Route: ORAL, Dose: 0, 1500, 3000 PPM IN DIET FOR 103 WK, Dose: 0, 1500, 3000 PPM IN DIET FOR 103 WK): inactive; negative
- carcinogen call (Species: RAT, Strain/Sex: F344/FEMALE, Route: ORAL, Dose: 0, 1500, 3000 PPM IN DIET FOR 103 WK, Dose: 0, 1500, 3000 PPM IN DIET FOR 103 WK): inactive; negative
- carcinogen call (Species: RAT, Strain/Sex: F344/MALE,FEMALE, Route: ORAL, Dose: 0.1% IN DIET FOR 2 YR): inactive; negative
- carcinogen call (Species: RAT, Strain/Sex: F344/MALE, Route: ORAL, Dose: 0, 1500, 3000 PPM IN DIET FOR 103 WK, Dose: 0, 1500, 3000 PPM IN DIET FOR 103 WK): inactive; negative

SMILES: COC(=O)c1ccc(C)cc1C1=NC(C)(C(C)C)C(=O)N1 (stereo not drawn) (tested in a mixture with another compound)
- carcinogen call (Species: Mouse, Strain/Sex: CD-1/Female (65/Group), Route: Oral, Dose: 0, 130, 525, 2100 ppm 94.2% imazamethabenz-methyl in diet for 18 mo, study duration 18 mo, Dose: 0, 130, 525, 2100 ppm 94.2% imazamethabenz-methyl in diet for 18 mo, study duration 18 mo): inactive; negative
- carcinogen call (Species: Mouse, Strain/Sex: CD-1/Male (65/Group), Route: Oral, Dose: 0, 130, 525, 2100 ppm 94.2% imazamethabenz-methyl in diet for 18 mo, study duration 18 mo, Dose: 0, 130, 525, 2100 ppm 94.2% imazamethabenz-methyl in diet for 18 mo, study duration 18 mo): inactive; negative
- carcinogen call (Species: Rat, Strain/Sex: Crl:CD(SD)BR/Female (65/Group), Route: Oral, Dose: 0, 240, 1000, 4000 ppm 94.2% imazamethabenz-methyl in diet for 24 mo, study duration 24 mo, Dose: 0, 240, 1000, 4000 ppm 94.2% imazamethabenz-methyl in diet for 24 mo, study duration 24 mo): inactive; negative
- carcinogen call (Species: Rat, Strain/Sex: Crl:CD(SD)BR/Male (65/Group), Route: Oral, Dose: 0, 240, 1000, 4000 ppm 94.2% imazamethabenz-methyl in diet for 24 mo, study duration 24 mo, Dose: 0, 240, 1000, 4000 ppm 94.2% imazamethabenz-methyl in diet for 24 mo, study duration 24 mo): inactive; negative
